Data taken from ChEMBL document CHEMBL4118151, “Highly potent activity of isopulegol-derived substituted octahydro-2H-chromen-4-ols against influenza A and B viruses” (Bioorg Med Chem Lett, 2018).

Key:
Influenza A virus [1] = test: Antiviral activity against amantadine/rimantadine-resistant Influenza A virus (A/Puerto Rico/8/34(H1N1)) infected in MDCK cells assessed as inhibition of viral replication after 48 hrs by hemagglutination test; assay type: functional, organism-based; details: A/Puerto Rico/8/1934(H1N1)
[2] = Selectivity index, ratio of CC50 for MDCK cells to IC50 for amantadine/rimantadine-resistant Influenza A virus (A/Puerto Rico/8/34(H1N1)); assay type: toxicity; details: dog, read-out: Ratio CC50/IC50
[3] = Selectivity index, ratio of CC50 for MDCK cells to IC50 for amantadine/rimantadine-resistant Influenza B virus (B/Florida/4/06/Yamagata-like); assay type: toxicity; details: dog, read-out: Ratio CC50/IC50
[4] = Selectivity index, ratio of CC50 for MDCK cells to IC50 for osaltamivir-resistant Influenza A virus (A/Vladivostok/02/09(H1N1)); assay type: toxicity; details: dog, read-out: Ratio CC50/IC50
[5] = Selectivity index, ratio of CC50 for MDCK cells to IC50 for amantadine/rimantadine-resistant Influenza A virus (A/California/07/09(H1N1)); assay type: toxicity; details: dog, read-out: Ratio CC50/IC50
Influenza A virus [6] = test: Antiviral activity against amantadine/rimantadine-resistant Influenza A virus (A/California/07/09(H1N1)) infected in MDCK cells assessed as inhibition of viral replication after 48 hrs by hemagglutination test; assay type: functional, organism-based; details: A/California/07/2009(H1N1)
Influenza B virus = test: Antiviral activity against amantadine/rimantadine-resistant Influenza B virus (B/Florida/4/06(Yamagata-like)) infected in MDCK cells assessed as inhibition of viral replication after 48 hrs by hemagglutination test; assay type: functional, organism-based, Influenza B virus (B/Florida/4/2006)
Influenza A virus [7] = test: Antiviral activity against osaltamivir-resistant Influenza A virus (A/Vladivostok/02/09(H1N1)) infected in MDCK cells assessed as inhibition of viral replication after 48 hrs by hemagglutination test; assay type: functional, organism-based

Question: With `C[C@@H]1CC[C@@H]2[C@H](C1)OC1(CCCCCC1)C[C@@]2(C)O` as the compound, how does the IC50 (Influenza A virus [1]) read?
Answer: Its IC50 is 82.7 µM.

Question: What about the selectivity ratio [2] of the same compound?
Answer: The selectivity ratio was 3.

Question: With `CC(C)=O` [ACETONE] as the compound, how does the IC50 (Influenza A virus [1]) read?
Answer: Its IC50 is 7.5 µM.

Question: For `CCC[C@H]1C[C@@](C)(O)[C@@H]2CC[C@@H](C)C[C@H]2O1`, which IC50 (Influenza A virus [1]) is on record?
Answer: The IC50 was greater than 1330 µM.

Question: With `C[C@@H]1CC[C@@H]2[C@@H](C1)OC(C)(C)C[C@@]2(C)O` as the compound, how does the selectivity ratio [3] read?
Answer: Its selectivity ratio is 83.

Question: And the selectivity ratio [4]?
Answer: Its selectivity ratio is 1.

Question: And the selectivity ratio [5]?
Answer: Its selectivity ratio is 1570.

Question: What about the IC50 (Influenza A virus [6]) of the same compound?
Answer: Its IC50 is 0.9 µM.

Question: And the IC50 (Influenza A virus [1])?
Answer: Its IC50 is 7.5 µM.

Question: And the IC50 (Influenza B virus)?
Answer: Its IC50 is 17 µM.

Question: And the IC50 (Influenza A virus [7])?
Answer: The IC50 was greater than 1420 µM.

Question: For `C[C@@H]1CC[C@@H]2[C@@H](C1)O[C@@H](C1CCCCC1)C[C@@]2(C)O`, which IC50 (Influenza A virus [1]) is on record?
Answer: Its IC50 is 12.4 µM.

Question: What about the selectivity ratio [2] of the same compound?
Answer: Its selectivity ratio is 2.

Question: Which results are given for `CCC1(CC)C[C@@](C)(O)[C@@H]2CC[C@@H](C)C[C@@H]2O1`?
Answer: IC50 (Influenza A virus [1]): 19.6 µM; selectivity ratio [2]: 10

Question: Which IC50 (Influenza A virus [1]) does the source give for `C[C@@H]1CC[C@@H]2[C@@H](C1)OC(C)(C)C[C@]2(C)O` here?
Answer: Its IC50 is 70.8 µM.

Question: And the selectivity ratio [2]?
Answer: The selectivity ratio was 12.

Question: For `C[C@@H]1CC[C@@H]2[C@H](C1)OC(C)(C)CC2(C)O` (some centres undefined), which IC50 (Influenza A virus [1]) is on record?
Answer: The IC50 was 17 µM.

Question: What about the selectivity ratio [2] of the same compound?
Answer: Its selectivity ratio is 4.

Question: For `NC(=O)c1ncn([C@@H]2O[C@H](CO)[C@@H](O)[C@H]2O)n1` [RIBAVIRIN], which IC50 (Influenza A virus [1]) is on record?
Answer: Its IC50 is 44 µM.

Question: With `CCCC1(CCC)C[C@@](C)(O)[C@@H]2CC[C@@H](C)C[C@@H]2O1` as the compound, how does the IC50 (Influenza A virus [1]) read?
Answer: The IC50 was 45.5 µM.

Question: What about the selectivity ratio [2] of the same compound?
Answer: The selectivity ratio was 3.

Question: Which IC50 (Influenza A virus [1]) does the source give for `C[C@@H]1CC[C@@H]2[C@H](C1)OC1(CCCC1)C[C@@]2(C)O` here?
Answer: Its IC50 is 8.4 µM.

Question: What about the selectivity ratio [2] of the same compound?
Answer: The selectivity ratio was 96.

Question: With `C[C@@H]1CC[C@@H]2[C@H](C1)OC1(CCCCCCC1)C[C@@]2(C)O` as the compound, how does the IC50 (Influenza A virus [1]) read?
Answer: Its IC50 is greater than 118 µM.

Question: With `C[C@@H]1CC[C@@H]2[C@H](C1)OC1(CCCCC1)C[C@@]2(C)O` as the compound, how does the IC50 (Influenza A virus [1]) read?
Answer: The IC50 was 18.3 µM.

Question: And the selectivity ratio [2]?
Answer: Its selectivity ratio is 34.

Question: With `CC(N)C12CC3CC(CC(C3)C1)C2` (centres undefined) [RIMANTADINE] as the compound, how does the IC50 (Influenza A virus [1]) read?
Answer: Its IC50 is 72 µM.

Question: What about the selectivity ratio [2] of the same compound?
Answer: The selectivity ratio was 4.
